Assay results: patent US20040180031A1, “Skin conditioner” (Kabushiki Kaisha Soken, priority 1999, published 2004)

Key:
[1] = system: normal human skin fibroblasts; experiment: Collagen production recovery test on damaged fibroblasts (Test Example 1); assay type: cell-based; conditions: 3H-proline uptake into collagen; sample final concentration 3.3%; 24 hours at 37° C.; hypoxanthine/xanthine oxidase damage; FIG. 1
Method: A collagen production recovery test was conducted on damaged fibroblasts. Six to eight subcultures of normal human skin fibroblasts (Physicochemical Research Institute, Cell Development Bank NBIRGB) were used in the test. […] Measurement of collagen production ability of a confluent in the steady state was performed according to the method of Webster et al. based on the uptake of ^3H-proline into the produced collagen. […] Since proline is a main component of the amino acids that compose collagen, fibroblasts are cultured in a medium containing ^3H-proline, and the ^3H activity taken up into collagen in the cells is measured. Units are in d.p.m., and represent the number of […] of radioactivity released per minute.

[2] = system: persons with atopic skin; experiment: 2-hour moisture retention duration test on atopic skin (Test Example 9); assay type: in vivo, human
Method: A 2-hour moisture retention duration test was performed on atopic skin.

[3] = system: volunteers with chapped skin; experiment: Moisture retention duration test on persons with chapped skin, ammonium samples (Test Example 17); assay type: in vivo, human
Method: A moisture retention duration test was conducted on persons with chapped skin.
Test Method: Same as Test Example 2
Measurement Method: Same as Text Example 2
Test Apparatus: Same as Test Example 2

[4] = system: persons with atopic skin; experiment: Moisture retention ability test on atopic skin, ammonium samples (Test Example 18); assay type: in vivo, human; conditions: FIG. 54
Method: A moisture retention ability test was performed on atopic skin. Test Method: Same as Test Example 3 Measurement Method: Same as Text Example 3 Test Apparatus: Same as Test Example 3

`NCCO` [ethanolamine] was tested, and the “collagen production ability of fibroblasts damaged by active oxygen” value [1] was “significantly improved” and the “moisture retention duration / continuation of moisture retention” value [2] was “observed”.
`N` [ammonium ions] was tested, and the moisture retention duration [3] was “can be observed” and the moisture retention ability [4] was “can be observed”.
In the case of `N=C(N)NCCC[C@H](N)C(=O)O` [L-arginine], the “collagen production ability of fibroblasts damaged by active oxygen” value [1] is reported as “significantly improved” and the “moisture retention duration / continuation of moisture retention” value [2] is reported as “observed”.
